pIC50: −log10 of the molar value. Counter-ions that a name gives are not always drawn.
Columns and labels:
[1] = target: T1, HCMV polymerase (Human cytomegalovirus, UniProt P08546); assay: HCMV polymerase scintillation proximity assay (modified version); type: biochemical; settings: for pIC50: modified SPA assay, compounds diluted in 100% DMSO, 4.5 mM DTT
T1 construct: made in house; host or cells: recombinant baculovirus-infected SF-9 cells
Protocol: (§1) The HCMV polymerase assay is performed using a scintillation proximity assay (SPA) as described in several references, such as N. D. Cook, et al., Pharmaceutical Manufacturing International, pages 49-53 (1992); K. Takeuchi, Laboratory Practice, September issue (1992); U.S. Pat. No. 4,568,649 (1986); which are incorporated by reference herein. Reactions are performed in 96-well plates. The assay is conducted in 100 μl volume with 5.4 mM HEPES (pH 7.5), 11.7 mM KCl, 4.5 mM MgCl2, 0.36 mg/ml BSA, and 90 nM ^3H-dTTP. Assays are run with and without CHAPS, (3-[(3-Cholamidopropyl)-dimethylammonio]-1-propane-sulfonate) at a final concentration of 2 mM. HCMV polymerase is diluted in enzyme dilution buffer containing 50% glycerol, 250 mM NaCl, 10 mM HEPES (pH 7.5), 100 μg/ml BSA, and 0.01% sodium azide. The HCMV polymerase, which is expressed in recombinant baculovirus-infected SF-9 cells and purified according to literature procedures, is added at 10% (or 10 μl) of the final reaction volume, i.e., 100 μl. Compounds are diluted in 50% DMSO and 10 μl are added to each well. Control wells contain an equivalent concentration of DMSO. Unless noted otherwise, reactions are initiated via the addition of 6 nM biotinylated poly(dA)-oligo(dT) template/primer to reaction mixtures containing the enzyme, substrate, and compounds of interest. Plates are incubated in a 25° C. or 37° C. H2O bath and terminated via the addition of 40 μl/reaction of 0.5 M EDTA (pH 8) per well. Reactions are terminated within the time-frame during which substrate incorporation is linear and varied depending upon the enzyme and conditions used, i.e., 30 min. for HCMV polymerase. Ten μl of streptavidin-SPA beads (20 mg/ml in PBS/10% glycerol) are added following termination of the reaction. Plates are incubated 10 min. at 37° C., then equilibrated to room temperature, and counted on a Packard Topcount. Linear regressions are performed and IC50's are calculated using computer software.
(§2) A modified version of the above HCMV polymerase assay is performed as described above, but with the following changes: Compounds are diluted in 100% DMSO until final dilution into assay buffer. In the previous assay, compounds are diluted in 50% DMSO. 4.5 mM dithiothreitol (DTT) is added to the polymerase buffer.

[2] = target: HSV polymerase (Human herpesvirus 1, UniProt P04293); assay: HSV polymerase assay (Table 1); type: biochemical
[3] = target: VZV polymerase (Varicella-zoster virus, UniProt P09252); assay: VZV polymerase assay (Table 1); type: biochemical
Protocol: [The source words this procedure for another target and says it was used here with some conditions changed.] as §1, §2

Sequence of HSV polymerase (P04293 whole entry): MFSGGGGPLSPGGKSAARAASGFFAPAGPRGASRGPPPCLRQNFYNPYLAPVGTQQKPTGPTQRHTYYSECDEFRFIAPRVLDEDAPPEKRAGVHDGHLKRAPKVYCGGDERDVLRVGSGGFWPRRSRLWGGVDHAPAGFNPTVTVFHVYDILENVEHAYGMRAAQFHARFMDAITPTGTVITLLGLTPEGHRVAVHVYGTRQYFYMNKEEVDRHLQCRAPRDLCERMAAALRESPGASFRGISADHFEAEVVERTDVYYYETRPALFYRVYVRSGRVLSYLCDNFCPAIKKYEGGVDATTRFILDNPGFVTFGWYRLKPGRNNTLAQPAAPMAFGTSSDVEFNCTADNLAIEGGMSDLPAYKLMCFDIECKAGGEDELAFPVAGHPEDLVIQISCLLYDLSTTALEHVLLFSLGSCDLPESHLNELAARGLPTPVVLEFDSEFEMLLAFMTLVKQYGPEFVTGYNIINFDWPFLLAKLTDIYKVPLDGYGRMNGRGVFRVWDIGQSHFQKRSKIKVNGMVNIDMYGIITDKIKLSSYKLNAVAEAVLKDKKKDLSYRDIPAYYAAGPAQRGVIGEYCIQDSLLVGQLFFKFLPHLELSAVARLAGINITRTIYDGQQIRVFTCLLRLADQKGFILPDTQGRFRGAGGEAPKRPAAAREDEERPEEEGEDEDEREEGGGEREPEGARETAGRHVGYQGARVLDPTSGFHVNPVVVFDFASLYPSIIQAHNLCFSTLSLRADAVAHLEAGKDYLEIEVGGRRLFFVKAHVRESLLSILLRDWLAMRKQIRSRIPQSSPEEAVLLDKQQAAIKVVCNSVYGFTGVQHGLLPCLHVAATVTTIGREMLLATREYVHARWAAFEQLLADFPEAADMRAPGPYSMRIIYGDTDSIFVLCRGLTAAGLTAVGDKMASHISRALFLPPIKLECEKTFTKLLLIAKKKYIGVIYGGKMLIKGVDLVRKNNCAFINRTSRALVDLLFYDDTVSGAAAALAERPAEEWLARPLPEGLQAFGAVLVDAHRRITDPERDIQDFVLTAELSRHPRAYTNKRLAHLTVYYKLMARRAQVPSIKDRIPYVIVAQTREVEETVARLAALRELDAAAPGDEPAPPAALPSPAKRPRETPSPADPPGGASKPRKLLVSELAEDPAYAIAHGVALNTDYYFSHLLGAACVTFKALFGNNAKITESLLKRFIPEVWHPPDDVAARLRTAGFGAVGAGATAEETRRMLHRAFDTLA
Sequence of VZV polymerase (P09252 whole entry): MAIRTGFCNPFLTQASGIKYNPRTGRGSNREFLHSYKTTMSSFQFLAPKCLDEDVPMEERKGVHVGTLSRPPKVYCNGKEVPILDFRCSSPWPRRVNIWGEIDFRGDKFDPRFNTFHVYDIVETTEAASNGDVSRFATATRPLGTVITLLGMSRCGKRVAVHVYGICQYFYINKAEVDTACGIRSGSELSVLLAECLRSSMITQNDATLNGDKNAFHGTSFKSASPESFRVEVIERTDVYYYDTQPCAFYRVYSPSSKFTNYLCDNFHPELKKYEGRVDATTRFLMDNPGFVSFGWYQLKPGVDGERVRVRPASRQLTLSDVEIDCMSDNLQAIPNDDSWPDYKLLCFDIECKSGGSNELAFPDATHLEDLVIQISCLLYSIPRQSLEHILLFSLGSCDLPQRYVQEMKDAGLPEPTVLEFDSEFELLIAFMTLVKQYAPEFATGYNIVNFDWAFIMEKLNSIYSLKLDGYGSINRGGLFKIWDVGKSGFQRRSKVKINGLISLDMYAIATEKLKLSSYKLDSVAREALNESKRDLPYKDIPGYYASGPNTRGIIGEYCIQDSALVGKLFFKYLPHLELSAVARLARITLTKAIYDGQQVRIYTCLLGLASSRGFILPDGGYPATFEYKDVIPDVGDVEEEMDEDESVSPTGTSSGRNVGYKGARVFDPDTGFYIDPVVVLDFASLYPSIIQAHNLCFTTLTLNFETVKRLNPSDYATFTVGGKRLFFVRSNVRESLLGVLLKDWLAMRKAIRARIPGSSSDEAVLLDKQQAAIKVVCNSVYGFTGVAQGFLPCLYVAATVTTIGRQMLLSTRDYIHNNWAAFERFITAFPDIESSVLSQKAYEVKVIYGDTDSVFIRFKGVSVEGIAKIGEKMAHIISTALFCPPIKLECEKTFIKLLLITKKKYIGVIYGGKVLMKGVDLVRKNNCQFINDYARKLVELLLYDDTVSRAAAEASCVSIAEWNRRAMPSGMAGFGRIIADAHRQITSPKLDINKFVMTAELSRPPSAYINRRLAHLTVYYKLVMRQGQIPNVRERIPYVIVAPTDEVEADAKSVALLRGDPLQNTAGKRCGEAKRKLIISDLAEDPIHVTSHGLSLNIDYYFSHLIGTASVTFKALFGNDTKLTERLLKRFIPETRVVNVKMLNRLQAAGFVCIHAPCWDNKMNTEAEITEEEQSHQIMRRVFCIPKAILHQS
T1 sequence (P08546 whole entry): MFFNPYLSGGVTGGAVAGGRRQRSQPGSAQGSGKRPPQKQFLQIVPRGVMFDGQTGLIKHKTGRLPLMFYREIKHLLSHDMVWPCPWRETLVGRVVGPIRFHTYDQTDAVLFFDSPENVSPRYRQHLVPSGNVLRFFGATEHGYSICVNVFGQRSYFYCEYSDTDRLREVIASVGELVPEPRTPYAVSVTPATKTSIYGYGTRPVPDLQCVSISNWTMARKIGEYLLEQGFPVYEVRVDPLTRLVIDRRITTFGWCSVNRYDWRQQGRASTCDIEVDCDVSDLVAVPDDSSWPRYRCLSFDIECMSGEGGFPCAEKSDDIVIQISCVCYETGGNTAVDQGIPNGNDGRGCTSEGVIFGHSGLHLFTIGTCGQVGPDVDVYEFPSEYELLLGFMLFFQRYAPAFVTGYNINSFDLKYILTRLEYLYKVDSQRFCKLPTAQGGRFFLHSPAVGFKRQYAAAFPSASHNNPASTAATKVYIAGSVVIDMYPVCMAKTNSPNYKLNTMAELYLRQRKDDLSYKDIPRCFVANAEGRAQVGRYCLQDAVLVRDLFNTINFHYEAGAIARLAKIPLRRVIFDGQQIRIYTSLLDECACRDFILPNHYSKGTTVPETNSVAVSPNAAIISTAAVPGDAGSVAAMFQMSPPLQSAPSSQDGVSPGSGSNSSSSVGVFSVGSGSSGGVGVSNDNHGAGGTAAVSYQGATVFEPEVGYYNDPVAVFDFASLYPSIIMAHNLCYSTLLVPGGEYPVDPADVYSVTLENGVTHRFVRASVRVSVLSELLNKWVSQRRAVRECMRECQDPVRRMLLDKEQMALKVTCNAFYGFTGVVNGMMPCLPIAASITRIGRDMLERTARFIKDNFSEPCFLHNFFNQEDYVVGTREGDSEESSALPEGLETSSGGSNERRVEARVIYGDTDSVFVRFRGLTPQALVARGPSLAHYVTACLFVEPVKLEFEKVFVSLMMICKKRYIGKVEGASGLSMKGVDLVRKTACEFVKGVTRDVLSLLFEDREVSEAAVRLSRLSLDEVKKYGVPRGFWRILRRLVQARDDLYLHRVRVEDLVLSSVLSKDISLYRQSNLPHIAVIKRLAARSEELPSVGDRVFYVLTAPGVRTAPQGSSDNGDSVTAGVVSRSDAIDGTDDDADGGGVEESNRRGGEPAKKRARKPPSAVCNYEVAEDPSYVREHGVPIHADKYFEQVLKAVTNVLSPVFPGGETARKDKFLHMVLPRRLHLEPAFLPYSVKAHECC

SMILES	inhibition at 20 µM ([1]; at 20 μM, read-out: Polymerase HCMV, percent inhibition at the given concentration) [%]	pIC50 [2]	melting point	pIC50 [3]	pIC50 [1]
O=C(NCc1ccc(Cl)cc1)c1cn2c3c(cc(CN4CCOCC4)cc3c1=O)CN(Cc1ccccc1)C2=O [Example 13, 2-Benzyl-N-(4-chlorobenzyl)-9-(4-morpholinylmethyl)-3,7-dioxo-2,3-dihydro-1H,7H-pyrido[3,2,1-ij]quinazoline-6-carboxamide]	39	–	–	–	–
O=C(NCc1ccc(Cl)cc1)c1cn2c3c(cc(CN4CCOCC4)cc3c1=O)N=C(NCc1ccccc1)C2 [Example 10, 2-(Benzylamino)-N-(4-chlorobenzyl)-9-(4-morpholinylmethyl)-7-oxo-3H,7H-pyrido[1,2,3-de]quinoxaline-6-carboxamide]	–	6.51	235 to 240 °C	6.92	6.51
CN1CCc2cc(C#CCO)cc3c(=O)c(C(=O)NCc4ccc(Cl)cc4)cn1c23 [Example 16, N-(4-Chlorobenzyl)-5-(3-hydroxyprop-1-ynyl)-1-methyl-7-oxo-2,3-dihydro-1H,7H-pyrido[3,2,1-ij]cinnoline-8-carboxamide]	–	–	165 to 167 °C	–	5.10
O=C1CCn2cc(C(=O)NCc3ccc(Cl)cc3)c(=O)c3cc(CN4CCOCC4)cc(c32)N1 [Example 9, N-(4-Chlorobenzyl)-10-(4-morpholinylmethyl)-2,8-dioxo-1,2,3,4-tetrahydro-8H-[1,4]diazepino[3,2,1-ij]quinoline-7-carboxamide]	–	6.55	–	6.77	6.17
O=C(NCc1ccc(Cl)cc1)c1cn2c3c(cc(C#CCO)cc3c1=O)CC2CO (stereo not shown) [Example 5, N-(4-Chlorobenzyl)-2-(hydroxymethyl)-8-(3-hydroxy-1-propynyl)-6-oxo-1,2-dihydro-6H-pyrrolo[3,2,1-ij]quinoline-5-carboxamide]	–	–	224 to 225 °C	–	5.49
CC1(C)Cc2cc(C#CCO)cc3c(=O)c(C(=O)NCc4ccc(Cl)cc4)cn1c23 [Example 6, N-(4-Chlorobenzyl)-8-(3-hydroxyprop-1-ynyl)-2,2-dimethyl-6-oxo-1,2-dihydro-6H-pyrrolo[3,2,1-ij]quinoline-5-carboxamide]	–	–	228 °C (dec.)	–	5.40
O=C(NCc1ccc(Cl)cc1)c1cn2c3c(cc(CN4CCOCC4)cc3c1=O)CN(Cc1ccccc1)C(=O)C2 [Example 14, 2-Benzyl-N-(4-chlorobenzyl)-10-(4-morpholinylmethyl)-3,8-dioxo-1,2,3,4-tetrahydro-8H-[1,4]diazepino[6,7,1-ij]quinoline-7-carboxamide]	–	–	–	–	5.22
CN1C(=O)Cn2cc(C(=O)NCc3ccc(Cl)cc3)c(=O)c3cc(C#CCO)cc1c32 [Example 11, N-(4-Chlorobenzyl)-9-(3-hydroxy-1-propynyl)-1-methyl-2,7-dioxo-2,3-dihydro-1H,7H-pyrido[1,2,3-de]quinoxaline-6-carboxamide]	–	–	–	–	5.94
O=C(NCc1ccc(Cl)cc1)c1cc2c3c(cc(CN4CCOCC4)cn3c1=O)CCC2 [Example 7, N-(4-Chlorobenzyl)-6-(morpholin-4-ylmethyl)-3-oxo-9,10dihydro-3H,8H-pyrido[3,2,1-ij]quinoline-2-carboxamide]	–	–	200 to 201 °C	–	5.40
O=C1Cn2cc(C(=O)NCc3ccc(Cl)cc3)c(=O)c3cc(CN4CCOCC4)cc(c32)N1 [Example 3, N-(4-Chlorobenzyl)-9-(4-morpholinylmethyl)-2,7-dioxo-2,3-dihydro-1H,7H-pyrido[1,2,3-de]quinoxaline-6-carboxamide]	–	> 6.29	–	7.22	6.85
CN1COc2cc(C#CCO)cc3c(=O)c(C(=O)NCc4ccc(Cl)cc4)cn1c23 [Example 15, N-(4-Chlorobenzyl)-9-(3-hydroxyprop-1-ynyl)-3-methyl-7-oxo-2,3-dihydro-7H-[1,3,4]oxadiazino[6,5,4-ij]quinoline-6-carboxamide]	–	–	231 to 233 °C	–	5.38
O=C(NCc1ccc(Cl)cc1)c1cn2c3c(cc(CN4CCOCC4)cc3c1=O)CN(Cc1ccccc1)C2 [Example 12, 2-Benzyl-N-(4-chlorobenzyl)-9-(4-morpholinylmethyl)-7-oxo-2,3-dihydro-1H,7H-pyrido[3,2,1-ij]quinazoline-6-carboxamide]	–	–	–	–	5.78
O=C(NCc1ccc(Cl)cc1)c1cn2c3c(cc(CN4CCOCC4)cc3c1=O)OCCC2 [Example 1, N-(4-Chlorobenzyl)-10-(4-morpholinylmethyl)-8-oxo-3,4-dihydro-2H,8H-[1,4]oxazepino [2,3,4-ij]quinoline-7-carboxamide]	–	–	195 to 197 °C	–	6.19
CC1C(=O)Nc2cc(CN3CCOCC3)cc3c(=O)c(C(=O)NCc4ccc(Cl)cc4)cn1c23 (stereo not shown) [Example 8, N-(4-Chlorobenzyl)-3-methyl-9-(4-morpholinylmethyl)-2,7-dioxo-2,3-dihydro-1H,7H-pyrido[1,2,3-de]quinoxaline-6-carboxamide hydrobromide]	–	6.70	–	7.05	6.37
O=C(NCc1ccc(Cl)cc1)c1cn2c3c(cc(CN4CCOCC4)cc3c1=O)N=C(NCc1ccc(Cl)cc1)C2 [Example 4, N-(4-Chlorobenzyl)-2-[(4-chlorobenzyl)amino]-9-(4-morpholinylmethyl)-7-oxo-3H,7H-pyrido[1,2,3-de]quinoxaline-6-carboxamide]	–	–	–	6.74	6.80
O=C(NCc1ccc(Cl)cc1)c1cn2c(=O)[nH]c3cc(CN4CCOCC4)cc(c1=O)c32 [Example 2, N-(4-Chlorobenzyl)-8-(4-morpholinylmethyl)-2,6-dioxo-1,2-dihydro-6H-imidazo[4,5,1-ij]quinoline-5-carboxamide]	–	6.13	–	6.28	6.11
